Assay results published in patent publication US10765114B2, “4-amino-6-(pyridyl and 2-substitutedphenyl)-picolinates and 6-amino-2-(pyridyl and 2-substitutedphenyl)-pyrimidine-4-carboxylates and their use as herbicides” (Dow AgroSciences LLC, priority 2013, dated 2020).
Read-outs that look alike come from different tables or passages of the source.

Tests used:
[1] = test system: Key Broadleaf Weed and Crop Species; test: Post-Emergent Test II (Table 5); type: in vivo; conditions: post-emergence, 336 h; for pest or weed control at 70 g/ha: application rate 70 (kg ai/ha; footnote: g ai/ha); for pest or weed control at 140 g/ha: application rate 140 (kg ai/ha; footnote: g ai/ha)
In short: (§1)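 Post-emergence greenhouse spray, 1st-2nd true leaf stage; track sprayer, 187 L/ha; acetone/DMSO stock diluted in aqueous acetone/IPA/DMSO with Atplus 411F and Triton X-155; rates 1× to 1/16×; subirrigated; visual injury 0 (none) to 100% (complete kill) at 14 days.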

[2] = test system: Key Grass and Sedge Weeds as well as Grass Crops; test: Post-Emergent Test II (Table 6); type: in vivo; conditions: post-emergence, 336 h, 14 days after application; for pest or weed control at 70 g/ha: 70 g ai/ha; for pest or weed control at 140 g/ha: 140 g ai/ha
In short: as §1

[3] = Abutilon theophrasti, ABUTH: velvetleaf (Abutilon theophrasti), read-out: Visual Growth Reduction (%) 14 Days After Application ABUTH
[4] = Amaranthus retroflexus, AMARE: redroot pigweed (Amaranthus retroflexus), read-out: Visual Growth Reduction (%) 14 Days After Application AMARE
[5] = Brassica napus, BRSSS: oilseed rape, canola (Brassica napus), read-out: Visual Growth Reduction (%) 14 Days After Application BRSSS
[6] = Chenopodium album, CHEAL: lambsquarters (Chenopodium album), read-out: Visual Growth Reduction (%) 14 Days After Application CHEAL
[7] = Euphorbia heterophylla, EPHHL: wild poinsettia (Euphorbia heterophylla), read-out: Visual Growth Reduction (%) 14 Days After Application EPHHL
[8] = Helianthus annuus, HELAN: sunflower (Helianthus annuus), read-out: Visual Growth Reduction (%) 14 Days After Application HELAN
[9] = Viola tricolor, VIOTR: wild pansy (Viola tricolor), read-out: Visual Growth Reduction (%) 14 Days After Application VIOTR
[10] = CYPSS, read-out: Visual Growth Reduction (%) 14 Days After Application CYPSS
[11] = DIGSA: crabgrass (Digitaria sanguinalis), read-out: Visual Growth Reduction (%) 14 Days After Application DIGSA
[12] = ECHSS, read-out: Visual Growth Reduction (%) 14 Days After Application ECHSS
[13] = ORYSS (crop), read-out: Visual Growth Reduction (%) 14 Days After Application ORYSS
[14] = SETFA: giant foxtail (Setaria faberi), read-out: Visual Growth Reduction (%) 14 Days After Application SETFA
[15] = SORVU: grain sorghum (Sorghum vulgare), read-out: Visual Growth Reduction (%) 14 Days After Application SORVU
[16] = TRZSS (crop), read-out: Visual Growth Reduction (%) 14 Days After Application TRZSS
[17] = ZEAMX: maize, corn (Zea mays), read-out: Visual Growth Reduction (%) 14 Days After Application ZEAMX

Structure (SMILES)	pest or weed control at 70 g/ha [1, 3]	pest or weed control at 140 g/ha [1, 3]	pest or weed control at 70 g/ha [1, 4]	pest or weed control at 140 g/ha [1, 4]	pest or weed control at 70 g/ha [1, 5]	pest or weed control at 140 g/ha [1, 5]	pest or weed control at 70 g/ha [1, 6]	pest or weed control at 140 g/ha [1, 6]	pest or weed control at 70 g/ha [1, 7]	pest or weed control at 140 g/ha [1, 7]	pest or weed control at 70 g/ha [1, 8]	pest or weed control at 140 g/ha [1, 8]	pest or weed control at 70 g/ha [1, 9]	pest or weed control at 140 g/ha [1, 9]	pest or weed control at 70 g/ha [2, 10]	pest or weed control at 140 g/ha [2, 10]	pest or weed control at 70 g/ha [2, 11]	pest or weed control at 140 g/ha [2, 11]	pest or weed control at 70 g/ha [2, 12]	pest or weed control at 140 g/ha [2, 12]	further results
Nc1c(F)c(-c2ccc(C(F)F)nc2)nc(C(=O)O)c1Cl [Compound 27, 4-amino-5-chloro-6′-(difluoromethyl)-3-fluoro-[2,3′-bipyridine]-6-carboxylic acid]	85 to 94%	95 to 100%	95 to 100%	95 to 100%	85 to 94%	85 to 94%	95 to 100%	95 to 100%	95 to 100%	95 to 100%	95 to 100%	95 to 100%	60 to 74%	60 to 74%	95 to 100%	95 to 100%	75 to 84%	85 to 94%	85 to 94%	85 to 94%	pest or weed control at 70 g/ha [2, 13]: 0 to 29%; pest or weed control at 140 g/ha [2, 13]: 0 to 29%; pest or weed control at 70 g/ha [2, 14]: 75 to 84%; pest or weed control at 140 g/ha [2, 14]: 85 to 94%; pest or weed control at 70 g/ha [2, 15]: 75 to 84%; pest or weed control at 140 g/ha [2, 15]: 85 to 94%; pest or weed control at 70 g/ha [2, 16]: 45 to 59%; pest or weed control at 140 g/ha [2, 16]: 60 to 74%; pest or weed control at 70 g/ha [2, 17]: 60 to 74%; pest or weed control at 140 g/ha [2, 17]: 75 to 84%; melting point: 167 to 169 °C
Cc1c(-c2cc(N)c(Cl)c(C(=O)O)n2)ccc(Cl)c1Cl [Compound 28]	95 to 100%	95 to 100%	95 to 100%	95 to 100%	60 to 74%	75 to 84%	95 to 100%	95 to 100%	0 to 29%	0 to 29%	85 to 94%	85 to 94%	0 to 29%	0 to 29%	0 to 29%	0 to 29%	0 to 29%	0 to 29%	0 to 29%	0 to 29%	pest or weed control at 70 g/ha [2, 13]: 0 to 29%; pest or weed control at 140 g/ha [2, 13]: 0 to 29%; pest or weed control at 70 g/ha [2, 14]: 0 to 29%; pest or weed control at 140 g/ha [2, 14]: 0 to 29%; pest or weed control at 70 g/ha [2, 15]: 0 to 29%; pest or weed control at 140 g/ha [2, 15]: 0 to 29%; pest or weed control at 70 g/ha [2, 16]: 0 to 29%; pest or weed control at 140 g/ha [2, 16]: 0 to 29%; pest or weed control at 70 g/ha [2, 17]: 30 to 44%; pest or weed control at 140 g/ha [2, 17]: 60 to 74%; melting point: 174 to 175 °C
COc1ccc(-c2nc(C(=O)O)c(Cl)c(N)c2F)cn1 [Compound 30]	95 to 100%	95 to 100%	95 to 100%	95 to 100%	95 to 100%	95 to 100%	95 to 100%	95 to 100%	95 to 100%	95 to 100%	95 to 100%	95 to 100%	0 to 29%	0 to 29%	0 to 29%	0 to 29%	60 to 74%	60 to 74%	95 to 100%	95 to 100%	pest or weed control at 70 g/ha [2, 13]: 30 to 44%; pest or weed control at 140 g/ha [2, 13]: 45 to 59%; pest or weed control at 70 g/ha [2, 14]: 75 to 84%; pest or weed control at 140 g/ha [2, 14]: 85 to 94%; pest or weed control at 70 g/ha [2, 15]: 45 to 59%; pest or weed control at 140 g/ha [2, 15]: 85 to 94%; pest or weed control at 70 g/ha [2, 16]: 0 to 29%; pest or weed control at 140 g/ha [2, 16]: 0 to 29%; pest or weed control at 70 g/ha [2, 17]: 95 to 100%; pest or weed control at 140 g/ha [2, 17]: 95 to 100%; melting point: 166 to 167 °C
